Data from ChEMBL document CHEMBL1201862, “PubChem BioAssay data set” (2004).
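Each compound was tested at five concentrations against cells in 96-well plates for 48 hours. GI50 marks 50% less growth.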 Calls of active or inactive are those of the source. No stated cut-off is given here; in the data, active = GI50 up to about 1.1 µM and inactive = higher.

Columns and labels:
Test in all cases: NCI tumour cell line growth inhibition, 48 h
COLO 205 = tested on: COLO 205
HOP-62 = tested on: HOP-62
K562 = tested on: K562
LOX IMVI = tested on: LOX IMVI
ACHN = tested on: ACHN
HOP-92 = tested on: HOP-92
OVCAR-3 = tested on: OVCAR-3
786-0 = tested on: 786-0
EKVX = tested on: EKVX
UACC-257 = tested on: UACC-257
A498 = tested on: A498
NCI-H23 = tested on: NCI-H23
OVCAR-4 = tested on: OVCAR-4
MOLT-4 = tested on: MOLT-4
T47D = tested on: T47D
MDA-MB-231 = tested on: MDA-MB-231
NCI-H460 = tested on: NCI-H460
CCRF-CEM = tested on: CCRF-CEM
SR = tested on: SR
Malme-3M = tested on: Malme-3M

Row | Structure (SMILES) | GI50 (COLO 205) | GI50 (HOP-62) | GI50 (K562) | GI50 (LOX IMVI) | GI50 (ACHN) | GI50 (HOP-92) | GI50 (OVCAR-3) | GI50 (786-0) | GI50 (EKVX) | GI50 (UACC-257) | GI50 (A498) | GI50 (NCI-H23) | GI50 (OVCAR-4) | GI50 (MOLT-4) | GI50 (T47D) | GI50 (MDA-MB-231) | GI50 (NCI-H460) | GI50 (CCRF-CEM) | GI50 (SR) | GI50 (Malme-3M)
1 | CCO/C=N/NC(=O)CSc1nc2ccc(I)cc2c(=O)n1Cc1ccccc1 | 57.4 µM (inactive) | 37.4 µM (inactive) | 11 µM (inactive) | 63.8 µM (inactive) | > 100 µM (inactive) | 83.6 µM (inactive) | 60 µM (inactive) | 56 µM (inactive) | 22.9 µM (inactive) | > 100 µM (inactive) | 84.5 µM (inactive) | 36.9 µM (inactive) | > 100 µM (inactive) | 28.5 µM (inactive) | 44.9 µM (inactive) | 38 µM (inactive) | 28.8 µM (inactive) | 23 µM (inactive) | 33.7 µM (inactive) | –
2 | COc1cc([C@H]2c3cc(O)c(OC)cc3C[C@]3(O)[C@@H]2CO[C@@H]3O)ccc1O | > 100 µM (inactive) | > 100 µM (inactive) | > 100 µM (inactive) | > 100 µM (inactive) | > 100 µM (inactive) | > 100 µM (inactive) | > 100 µM (inactive) | > 100 µM (inactive) | > 100 µM (inactive) | > 100 µM (inactive) | > 100 µM (inactive) | > 100 µM (inactive) | > 100 µM (inactive) | > 100 µM (inactive) | > 100 µM (inactive) | > 100 µM (inactive) | > 100 µM (inactive) | > 100 µM (inactive) | > 100 µM (inactive) | –
3 | COc1ccc(-c2nc3cc(F)ccc3s2)cc1O | 28.7 µM (inactive) | – | 73.1 µM (inactive) | 21.1 µM (inactive) | 28.7 µM (inactive) | – | 29.7 µM (inactive) | 18.9 µM (inactive) | 6.59 µM (inactive) | 24.9 µM (inactive) | 29.7 µM (inactive) | 29.3 µM (inactive) | 28.8 µM (inactive) | > 100 µM (inactive) | 0.514 µM (active) | 39.6 µM (inactive) | 21.3 µM (inactive) | 4.53 µM (inactive) | 19.1 µM (inactive) | 35.1 µM (inactive)
4 | O=P1(Oc2ccccc2)NCc2ncccc2O1 (configuration not stated) | > 100 µM (inactive) | > 100 µM (inactive) | > 100 µM (inactive) | > 100 µM (inactive) | > 100 µM (inactive) | > 100 µM (inactive) | > 100 µM (inactive) | > 100 µM (inactive) | > 100 µM (inactive) | > 100 µM (inactive) | > 100 µM (inactive) | > 100 µM (inactive) | > 100 µM (inactive) | > 100 µM (inactive) | > 100 µM (inactive) | > 100 µM (inactive) | > 100 µM (inactive) | > 100 µM (inactive) | > 100 µM (inactive) | –
5 | CCCCCCCCOC(=O)C12Oc3ccc(-c4ccc5c(c4O)C(=O)C4=C(O)CC(C)C(O)C4(C(=O)OCCCCCCCC)O5)c(O)c3C(=O)C1=C(O)CC(C)C2O (configuration not stated) | 20.9 µM (inactive) | – | 2.93 µM (inactive) | 25.5 µM (inactive) | 5.61 µM (inactive) | 8.45 µM (inactive) | 24.2 µM (inactive) | 19.1 µM (inactive) | 28.5 µM (inactive) | 34.8 µM (inactive) | 23.5 µM (inactive) | 10.2 µM (inactive) | 19.6 µM (inactive) | 16.3 µM (inactive) | 16.2 µM (inactive) | 23.8 µM (inactive) | 4.66 µM (inactive) | 2.05 µM (inactive) | 4.26 µM (inactive) | 32.4 µM (inactive)
6 | Cc1cc(N(CCC#N)CCC#N)ccc1C(/N=N\c1ccc(C(=O)O)cc1)=N\NC(=O)c1cc(Cl)ccc1O | > 100 µM (inactive) | 27 µM (inactive) | > 100 µM (inactive) | – | 31.7 µM (inactive) | – | 56.2 µM (inactive) | 19.3 µM (inactive) | 33 µM (inactive) | > 100 µM (inactive) | 28.6 µM (inactive) | 39.2 µM (inactive) | 29.2 µM (inactive) | > 100 µM (inactive) | 40.7 µM (inactive) | 26.6 µM (inactive) | 36 µM (inactive) | 59.8 µM (inactive) | 62.8 µM (inactive) | 56.6 µM (inactive)
7 | CN(C(=O)c1ccncc1)c1ccccc1 | > 100 µM (inactive) | > 100 µM (inactive) | > 100 µM (inactive) | > 100 µM (inactive) | > 100 µM (inactive) | > 100 µM (inactive) | > 100 µM (inactive) | > 100 µM (inactive) | > 100 µM (inactive) | > 100 µM (inactive) | > 100 µM (inactive) | > 100 µM (inactive) | > 100 µM (inactive) | > 100 µM (inactive) | > 100 µM (inactive) | > 100 µM (inactive) | > 100 µM (inactive) | – | > 100 µM (inactive) | > 100 µM (inactive)
8 | CC1(C)C2CCC1(C)[C@H](n1c(=O)n([C@@H]3CC4CCC3(C)C4(C)C)c(=O)n([C@@H]3CC4CCC3(C)C4(C)C)c1=O)C2 | – | 44.4 µM (inactive) | 85.9 µM (inactive) | > 100 µM (inactive) | 37.8 µM (inactive) | 87.7 µM (inactive) | 35.4 µM (inactive) | 28 µM (inactive) | 30 µM (inactive) | 55.8 µM (inactive) | 88.5 µM (inactive) | 63 µM (inactive) | > 100 µM (inactive) | 63.4 µM (inactive) | 42.6 µM (inactive) | 45.5 µM (inactive) | 31.2 µM (inactive) | – | 71.4 µM (inactive) | –
9 | CCOC(=O)NN(C(=O)OCC)C(C(=O)C1=CCCCC1)N(NC(=O)OCC)C(=O)OCC | > 100 µM (inactive) | > 100 µM (inactive) | > 100 µM (inactive) | > 100 µM (inactive) | > 100 µM (inactive) | > 100 µM (inactive) | > 100 µM (inactive) | > 100 µM (inactive) | > 100 µM (inactive) | > 100 µM (inactive) | 22.6 µM (inactive) | > 100 µM (inactive) | > 100 µM (inactive) | > 100 µM (inactive) | > 100 µM (inactive) | > 100 µM (inactive) | > 100 µM (inactive) | – | > 100 µM (inactive) | > 100 µM (inactive)
10 | Nc1nc(CCl)nc(N2CCOCC2)n1 | 17.9 µM (inactive) | 18.2 µM (inactive) | 23.4 µM (inactive) | – | 16.6 µM (inactive) | 16.8 µM (inactive) | > 10 µM (inactive) | 14 µM (inactive) | 17.6 µM (inactive) | 63.2 µM (inactive) | 33 µM (inactive) | 17.8 µM (inactive) | 17.4 µM (inactive) | 26.9 µM (inactive) | 55.3 µM (inactive) | 28.9 µM (inactive) | 17.7 µM (inactive) | 18.6 µM (inactive) | 21.3 µM (inactive) | –
11 | Oc1cc(-c2cccc(C(F)(F)F)c2)nc2cc3c(cc12)OCO3 | 8.93 µM (inactive) | 1.83 µM (inactive) | 0.26 µM (active) | – | 25.7 µM (inactive) | 2.24 µM (inactive) | – | 2.05 µM (inactive) | 1.5 µM (inactive) | – | 8.87 µM (inactive) | 1.77 µM (inactive) | – | 2.82 µM (inactive) | > 50 µM (inactive) | 1.87 µM (inactive) | 1.39 µM (inactive) | 0.277 µM (active) | 0.55 µM (active) | 0.518 µM (active)
12 | O=[N+]([O-])c1ccc2c(c1)n1c(N3CCCC3)[n+]3ccccc3c1c1c3ccccn3c(N3CCCC3)[n+]21.[O-][Cl+3]([O-])([O-])[O-].[O-][Cl+3]([O-])([O-])[O-] | 54 µM (inactive) | – | 23.7 µM (inactive) | > 100 µM (inactive) | 10 µM (inactive) | > 100 µM (inactive) | > 100 µM (inactive) | > 100 µM (inactive) | > 100 µM (inactive) | > 100 µM (inactive) | > 100 µM (inactive) | > 100 µM (inactive) | > 100 µM (inactive) | 43.2 µM (inactive) | > 100 µM (inactive) | > 100 µM (inactive) | > 100 µM (inactive) | 21.1 µM (inactive) | > 100 µM (inactive) | 68.9 µM (inactive)
13 | C[C@H]1CC[C@@]2(OC1)O[C@H]1C[C@H]3[C@@H]4CC[C@@H]5C[C@@H](OC6OC(CO)C(O)C(O)C6OC6OC(CO)C(O)C(O)C6O)CC[C@]5(C)[C@H]4CC[C@]3(C)[C@H]1[C@@H]2C (some centres not stated) | 1.9 µM (inactive) | 2.25 µM (inactive) | 2.07 µM (inactive) | 1.99 µM (inactive) | 2.11 µM (inactive) | 2.37 µM (inactive) | 2.16 µM (inactive) | 2.01 µM (inactive) | 2.08 µM (inactive) | 2.15 µM (inactive) | – | 2.31 µM (inactive) | 2.33 µM (inactive) | 1.84 µM (inactive) | 1.99 µM (inactive) | 2.09 µM (inactive) | – | 1.58 µM (inactive) | 2.07 µM (inactive) | 2.62 µM (inactive)
14 | C=C1CC[C@@]2(OC1)OC1C[C@H]3[C@@H]4CC=C5C[C@@H](O)CC(OC6OCC(OC(=O)[C@@H](O)[C@@H](C)CC)C(OC(C)=O)C6OC6OC(C)C(O)C(O)C6O)[C@]5(C)[C@H]4CC[C@]3(C)C1[C@@H]2C (some centres not stated) | 2.11 µM (inactive) | – | 2.01 µM (inactive) | 1.87 µM (inactive) | 2.28 µM (inactive) | 3.3 µM (inactive) | 1.85 µM (inactive) | 1.82 µM (inactive) | 2.34 µM (inactive) | 2.21 µM (inactive) | 1.81 µM (inactive) | 2.44 µM (inactive) | 2.81 µM (inactive) | 1.7 µM (inactive) | 4.78 µM (inactive) | 1.75 µM (inactive) | 1.72 µM (inactive) | 1.53 µM (inactive) | 2.07 µM (inactive) | 3.84 µM (inactive)
